Tested on: RELA
Assay: Total RELA protein level after bortezomib
Assay type: cell-based, human
Conditions: bortezomib treatment
Experimental: Data are presented as median+/−25%. Lower whisker is smallest observation greater than or equal to 25% quantile-1.5*interquantile range (IQR). Upper whisker represents the largest observation less than or equal to 75%+1.5*IQR. Amount of normalized RELA protein in the c) input or d) co-immunoprecipitated with SMARCA4 from 3 independent runs. […]
Cell lines were harvested with cold RIPA lysis buffer (50 mM Tris pH 8, 150 mM NaCl, 0.1% Triton X-100, 0.5% Sodium deoxycholate, 0.1% SDS) with protease inhibitors (Roche) on ice. […] Protein concentration was measured by Pierce BCA protein assay (Life Technologies). […]

CC(C)C[C@H](NC(=O)[C@H](Cc1ccccc1)NC(=O)c1cnccn1)B(O)O [bortezomib]
effect on total protein levels of RELA: did not significantly affect
